Assay results published in BigSolDB 2.1.

C=C(C)[C@@H]1CC[C@]2(CO)CC[C@]3(C)[C@H](CC[C@@H]4[C@@]5(C)CC[C@H](O)C(C)(C)[C@@H]5CC[C@]43C)[C@@H]12
solubility (mole fraction)
Conditions	278.2 K	288.2 K	298.2 K	308.2 K	318.2 K
in acetone	0.000689	0.00101	0.0015	0.00203	0.00243
in ethanol	0.000842	0.00096	0.00107	0.00124	0.00135
